{
  "source": "patent EP0908457B1",
  "about": "“3-(1,2-benzisothiazol- and isoxazol-5-Y1)-2,4(1H,3H)-pyrimidinedione or thione and 3-(1,2-benzisothiazol- and isoxazol-5-y1)-4(3H)-pyrimidinone or thione herbicidal agents” (BASF AKTIENGESELLSCHAFT, priority 1997, dated 1999)",
  "key": {"[1]": {"system": "Cyperus serotinus, Rottb.", "experiment": "Preemergence weed control under flooded paddy conditions, CYPSE (Flatsedge)", "type": "in vivo", "conditions": "preemergence; for CYPSE herbicidal rating: rated three to four weeks after treatment; for herbicidal effect rating, CYPSE: rated 3-4 weeks after treatment"}, "[2]": {"system": "Monochoria vaginalis, Presl.", "experiment": "Preemergence weed control under flooded paddy conditions, MOOVA (Monochoria)", "type": "in vivo", "conditions": "preemergence, flooded paddy; for MOOVA herbicidal rating: rated three to four weeks after treatment; for herbicidal effect rating, MOOVA: rated 3-4 weeks after treatment"}, "[3]": {"system": "Oryza sativa, (L.) Tebonnet", "experiment": "Rice tolerance to post-transplant applications under flooded paddy conditions (Example 187), ORYSAT (Rice, Tebonnet); as to herbicidal effect rating ORYSAT: meaning of each grade not given here", "conditions": "for ORYSAT herbicidal rating (rice tolerance): rated three to four weeks after treatment; for herbicidal effect rating ORYSAT: rated 3-4 weeks after treatment"}, "Sagittaria pygmaea, L.": {"system": "Sagittaria pygmaea, L.", "experiment": "Preemergence weed control under flooded paddy conditions, SAGPY (Arrowhead (Pygmaea))", "type": "in vivo", "conditions": "preemergence, flooded paddy; for SAGPY herbicidal rating: rated three to four weeks after treatment; for herbicidal effect rating, SAGPY: rated 3-4 weeks after treatment"}, "[4]": {"system": "Echinochloa oryzoides (Ard.) Fritsch.", "experiment": "Preemergence weed control under flooded paddy conditions, ECHORC (Watergrass (Calif.))", "type": "in vivo", "conditions": "preemergence, flooded paddy; for ECHORC herbicidal rating: rated three to four weeks after treatment; for herbicidal effect rating, ECHORC: rated 3-4 weeks after treatment"}, "Cyperus iria": {"system": "Cyperus iria", "experiment": "Preemergence weed control under flooded paddy conditions, CYPIR (Rice Flatsedge)", "type": "in vivo", "conditions": "preemergence, flooded paddy; for CYPIR herbicidal rating: rated three to four weeks after treatment; for herbicidal effect rating, CYPIR: rated 3-4 weeks after treatment"}},
  "data": [
    {"smiles": "C=CCOC(=O)C(C)(C)c1nsc2ccc(-n3c(=O)cc(C(F)(F)F)n(C)c3=O)cc12", "note": "[Example 491, 1,2-Benzisothiazole-3-acetic acid, 5-[3,6-dihydro-3-methyl-2,6-dioxo-4-(trifluoromethyl)-1(2H)-pyrimidinyl]-alpha,alpha-dimethyl-, allyl ester]", "values": [
      {"measurement": "CYPSE herbicidal rating", "setting": "[1]; 0.0320 kg/ha", "value": 7.0},
      {"measurement": "CYPSE herbicidal rating", "setting": "[1]; 0.0620 kg/ha", "value": 9.0},
      {"measurement": "CYPSE herbicidal rating", "setting": "[1]; 0.1250 kg/ha", "value": 9.0},
      {"measurement": "CYPSE herbicidal rating", "setting": "[1]; 0.2500 kg/ha", "value": 9.0},
      {"measurement": "MOOVA herbicidal rating", "setting": "[2]; 0.0320 kg/ha", "value": 9.0},
      {"measurement": "MOOVA herbicidal rating", "setting": "[2]; 0.0620 kg/ha", "value": 9.0},
      {"measurement": "MOOVA herbicidal rating", "setting": "[2]; 0.1250 kg/ha", "value": 9.0},
      {"measurement": "MOOVA herbicidal rating", "setting": "[2]; 0.2500 kg/ha", "value": 9.0},
      {"measurement": "ORYSAT herbicidal rating (rice tolerance)", "setting": "[3]; 0.0320 kg/ha", "value": 5.0},
      {"measurement": "ORYSAT herbicidal rating (rice tolerance)", "setting": "[3]; 0.0620 kg/ha", "value": 6.5},
      {"measurement": "ORYSAT herbicidal rating (rice tolerance)", "setting": "[3]; 0.1250 kg/ha", "value": 8.0},
      {"measurement": "ORYSAT herbicidal rating (rice tolerance)", "setting": "[3]; 0.2500 kg/ha", "value": 7.5},
      {"measurement": "SAGPY herbicidal rating", "setting": "Sagittaria pygmaea, L.; 0.0320 kg/ha", "value": 5.0},
      {"measurement": "SAGPY herbicidal rating", "setting": "Sagittaria pygmaea, L.; 0.0620 kg/ha", "value": 5.5},
      {"measurement": "SAGPY herbicidal rating", "setting": "Sagittaria pygmaea, L.; 0.1250 kg/ha", "value": 9.0},
      {"measurement": "SAGPY herbicidal rating", "setting": "Sagittaria pygmaea, L.; 0.2500 kg/ha", "value": 9.0},
      {"measurement": "ECHORC herbicidal rating", "setting": "[4]; 0.0320 kg/ha", "value": 9.0},
      {"measurement": "ECHORC herbicidal rating", "setting": "[4]; 0.0620 kg/ha", "value": 9.0},
      {"measurement": "ECHORC herbicidal rating", "setting": "[4]; 0.1250 kg/ha", "value": 9.0},
      {"measurement": "ECHORC herbicidal rating", "setting": "[4]; 0.2500 kg/ha", "value": 9.0},
      {"measurement": "CYPIR herbicidal rating", "setting": "Cyperus iria; 0.0320 kg/ha", "value": 7.5},
      {"measurement": "CYPIR herbicidal rating", "setting": "Cyperus iria; 0.0620 kg/ha", "value": 9.0},
      {"measurement": "CYPIR herbicidal rating", "setting": "Cyperus iria; 0.1250 kg/ha", "value": 9.0},
      {"measurement": "CYPIR herbicidal rating", "setting": "Cyperus iria; 0.2500 kg/ha", "value": 9.0}
    ]},
    {"smiles": "CCS(=O)(=O)NC(=O)COc1ccccc1-c1nsc2ccc(-n3c(=O)cc(C(F)(F)F)n(C)c3=O)cc12", "note": "[Example 558, Acetamide, 2-{o-{5-[3,6-dihydro-3-methyl-2,6-dioxo-4-(trifluoromethyl)-1(2H)-pyrimidinyl]-1,2-benzisothiazol-3-yl}phenoxy}-N-(ethylsulfonyl)-]", "values": [
      {"measurement": "herbicidal effect rating, CYPSE", "setting": "[1]; Rate 0.1250 kg/ha", "value": 9.0},
      {"measurement": "herbicidal effect rating, CYPSE", "setting": "[1]; Rate 0.2500 kg/ha", "value": 9.0},
      {"measurement": "herbicidal effect rating, CYPSE", "setting": "[1]; Rate 0.5000 kg/ha", "value": 9.0},
      {"measurement": "herbicidal effect rating, MOOVA", "setting": "[2]; Rate 0.0320 kg/ha", "value": 9.0},
      {"measurement": "herbicidal effect rating, MOOVA", "setting": "[2]; Rate 0.0620 kg/ha", "value": 9.0},
      {"measurement": "herbicidal effect rating, MOOVA", "setting": "[2]; Rate 0.1250 kg/ha", "value": 9.0},
      {"measurement": "herbicidal effect rating, MOOVA", "setting": "[2]; Rate 0.2500 kg/ha", "value": 9.0},
      {"measurement": "herbicidal effect rating, MOOVA", "setting": "[2]; Rate 0.5000 kg/ha", "value": 9.0},
      {"measurement": "herbicidal effect rating ORYSAT", "setting": "[3]; Rate 0.0320 kg/ha", "value": 4.0},
      {"measurement": "herbicidal effect rating ORYSAT", "setting": "[3]; Rate 0.0620 kg/ha", "value": 7.0},
      {"measurement": "herbicidal effect rating ORYSAT", "setting": "[3]; Rate 0.1250 kg/ha", "value": 9.0},
      {"measurement": "herbicidal effect rating ORYSAT", "setting": "[3]; Rate 0.2500 kg/ha", "value": 9.0},
      {"measurement": "herbicidal effect rating ORYSAT", "setting": "[3]; Rate 0.5000 kg/ha", "value": 9.0},
      {"measurement": "herbicidal effect rating, SAGPY", "setting": "Sagittaria pygmaea, L.; Rate 0.0320 kg/ha", "value": 2.0},
      {"measurement": "herbicidal effect rating, SAGPY", "setting": "Sagittaria pygmaea, L.; Rate 0.0620 kg/ha", "value": 2.0},
      {"measurement": "herbicidal effect rating, SAGPY", "setting": "Sagittaria pygmaea, L.; Rate 0.1250 kg/ha", "value": 4.0},
      {"measurement": "herbicidal effect rating, SAGPY", "setting": "Sagittaria pygmaea, L.; Rate 0.2500 kg/ha", "value": 8.0},
      {"measurement": "herbicidal effect rating, SAGPY", "setting": "Sagittaria pygmaea, L.; Rate 0.5000 kg/ha", "value": 4.0},
      {"measurement": "herbicidal effect rating, ECHORC", "setting": "[4]; Rate 0.0320 kg/ha", "value": 4.3},
      {"measurement": "herbicidal effect rating, ECHORC", "setting": "[4]; Rate 0.0620 kg/ha", "value": 4.7},
      {"measurement": "herbicidal effect rating, ECHORC", "setting": "[4]; Rate 0.1250 kg/ha", "value": 7.0},
      {"measurement": "herbicidal effect rating, ECHORC", "setting": "[4]; Rate 0.2500 kg/ha", "value": 9.0},
      {"measurement": "herbicidal effect rating, ECHORC", "setting": "[4]; Rate 0.5000 kg/ha", "value": 9.0},
      {"measurement": "herbicidal effect rating, CYPIR", "setting": "Cyperus iria; Rate 0.0320 kg/ha", "value": 2.0},
      {"measurement": "herbicidal effect rating, CYPIR", "setting": "Cyperus iria; Rate 0.0620 kg/ha", "value": 6.0},
      {"measurement": "herbicidal effect rating, CYPIR", "setting": "Cyperus iria; Rate 0.1250 kg/ha", "value": 8.0},
      {"measurement": "herbicidal effect rating, CYPIR", "setting": "Cyperus iria; Rate 0.2500 kg/ha", "value": 9.0},
      {"measurement": "herbicidal effect rating, CYPIR", "setting": "Cyperus iria; Rate 0.5000 kg/ha", "value": 9.0}
    ]},
    {"smiles": "CC(C)N(C(C)C)S(=O)(=O)NC(=O)COc1ccccc1-c1nsc2ccc(-n3c(=O)cc(C(F)(F)F)n(C)c3=O)cc12", "note": "[Example 512, Acetamide, 2-{o-{5-[3,6-dihydro-3-methyl-2,6-dioxo-4-(trifluoromethyl)-1(2H)-pyrimidinyl]-1,2-benzisothiazol-3-yl}phenoxy}-N-(diisopropyl-sulfamoyl)-]", "values": [
      {"measurement": "CYPSE herbicidal rating", "setting": "[1]; 0.0320 kg/ha", "value": 0.0},
      {"measurement": "CYPSE herbicidal rating", "setting": "[1]; 0.0620 kg/ha", "value": 0.0},
      {"measurement": "CYPSE herbicidal rating", "setting": "[1]; 0.1250 kg/ha", "value": 0.0},
      {"measurement": "CYPSE herbicidal rating", "setting": "[1]; 0.2500 kg/ha", "value": 0.0},
      {"measurement": "MOOVA herbicidal rating", "setting": "[2]; 0.0320 kg/ha", "value": 9.0},
      {"measurement": "MOOVA herbicidal rating", "setting": "[2]; 0.0620 kg/ha", "value": 9.0},
      {"measurement": "MOOVA herbicidal rating", "setting": "[2]; 0.1250 kg/ha", "value": 9.0},
      {"measurement": "MOOVA herbicidal rating", "setting": "[2]; 0.2500 kg/ha", "value": 9.0},
      {"measurement": "ORYSAT herbicidal rating (rice tolerance)", "setting": "[3]; 0.0320 kg/ha", "value": 0.0},
      {"measurement": "ORYSAT herbicidal rating (rice tolerance)", "setting": "[3]; 0.0620 kg/ha", "value": 0.0},
      {"measurement": "ORYSAT herbicidal rating (rice tolerance)", "setting": "[3]; 0.1250 kg/ha", "value": 1.0},
      {"measurement": "ORYSAT herbicidal rating (rice tolerance)", "setting": "[3]; 0.2500 kg/ha", "value": 2.0},
      {"measurement": "SAGPY herbicidal rating", "setting": "Sagittaria pygmaea, L.; 0.0320 kg/ha", "value": 0.0},
      {"measurement": "SAGPY herbicidal rating", "setting": "Sagittaria pygmaea, L.; 0.0620 kg/ha", "value": 0.0},
      {"measurement": "SAGPY herbicidal rating", "setting": "Sagittaria pygmaea, L.; 0.1250 kg/ha", "value": 2.0},
      {"measurement": "SAGPY herbicidal rating", "setting": "Sagittaria pygmaea, L.; 0.2500 kg/ha", "value": 4.0},
      {"measurement": "ECHORC herbicidal rating", "setting": "[4]; 0.0320 kg/ha", "value": 7.0},
      {"measurement": "ECHORC herbicidal rating", "setting": "[4]; 0.0620 kg/ha", "value": 7.0},
      {"measurement": "ECHORC herbicidal rating", "setting": "[4]; 0.1250 kg/ha", "value": 9.0},
      {"measurement": "ECHORC herbicidal rating", "setting": "[4]; 0.2500 kg/ha", "value": 9.0},
      {"measurement": "CYPIR herbicidal rating", "setting": "Cyperus iria; 0.0320 kg/ha", "value": 0.0},
      {"measurement": "CYPIR herbicidal rating", "setting": "Cyperus iria; 0.0620 kg/ha", "value": 2.0},
      {"measurement": "CYPIR herbicidal rating", "setting": "Cyperus iria; 0.1250 kg/ha", "value": 5.0},
      {"measurement": "CYPIR herbicidal rating", "setting": "Cyperus iria; 0.2500 kg/ha", "value": 5.0}
    ]}
  ]
}
